From ChEMBL document CHEMBL1201862, “PubChem BioAssay data set” (2004)
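Grown in 96-well plates, cells were treated for 48 hours with each compound at five concentrations. Insufficient inhibition: endpoint recorded as highest concentration tested. Here, GI50 denotes the concentration required for 50% inhibition of growth.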 Activity calls are given as the source filed them. No stated cut-off is given here; in the data, active = GI50 up to about 1.1 µM and inactive = higher.

What was measured:
Assay in all cases: DTP human tumour cell line panel, 48 h
[1] = test system: NCI-H23
[2] = test system: LOX IMVI
[3] = test system: HOP-62
[4] = test system: SK-MEL-2
[5] = test system: NCI-H226
[6] = test system: NCI-H460
[7] = test system: OVCAR-8
[8] = test system: EKVX
[9] = test system: SF-268
[10] = test system: OVCAR-4
[11] = test system: MDA-MB-435
[12] = test system: A549
[13] = test system: SK-OV-3
[14] = test system: HCC 2998
[15] = test system: MCF7
[16] = test system: HT-29
[17] = test system: NCI/ADR-RES
[18] = test system: T47D
[19] = test system: SW-620
[20] = test system: A498

Row | Structure (SMILES) | GI50 [1] | GI50 [2] | GI50 [3] | GI50 [4] | GI50 [5] | GI50 [6] | GI50 [7] | GI50 [8] | GI50 [9] | GI50 [10] | GI50 [11] | GI50 [12] | GI50 [13] | GI50 [14] | GI50 [15] | GI50 [16] | GI50 [17] | GI50 [18] | GI50 [19] | GI50 [20]
1 | CCOC(=O)c1cc2ncccc2c2ccccc12 | > 100 µM (inactive) | > 100 µM (inactive) | > 100 µM (inactive) | > 100 µM (inactive) | > 100 µM (inactive) | > 100 µM (inactive) | > 100 µM (inactive) | > 100 µM (inactive) | > 100 µM (inactive) | > 100 µM (inactive) | > 100 µM (inactive) | > 100 µM (inactive) | > 100 µM (inactive) | > 100 µM (inactive) | > 100 µM (inactive) | > 100 µM (inactive) | > 100 µM (inactive) | > 100 µM (inactive) |  | 
2 | CNc1nc(N)nc(Nc2ccc(I)cc2)c1N=O | > 100 µM (inactive) | > 100 µM (inactive) | > 100 µM (inactive) | > 100 µM (inactive) |  | > 100 µM (inactive) | > 100 µM (inactive) | > 100 µM (inactive) | > 100 µM (inactive) |  | > 100 µM (inactive) | > 100 µM (inactive) |  | > 100 µM (inactive) | > 100 µM (inactive) | 24 µM (inactive) | > 100 µM (inactive) |  | > 100 µM (inactive) | 
3 | Cc1nc(C(N)=S)sc1/C(CC(=O)C(=O)Nc1cccc2ccc(O)cc12)=N\NC(=O)c1ccncc1 | > 100 µM (inactive) | 42.2 µM (inactive) | 37.5 µM (inactive) | > 100 µM (inactive) | 61.1 µM (inactive) | 22.9 µM (inactive) | 49.1 µM (inactive) | > 100 µM (inactive) | 82.8 µM (inactive) | 49.9 µM (inactive) | > 100 µM (inactive) | > 100 µM (inactive) | > 100 µM (inactive) | 59.8 µM (inactive) | 39.7 µM (inactive) | 37.8 µM (inactive) | > 100 µM (inactive) |  | > 100 µM (inactive) | 
4 | Cc1cc(S(=O)(=O)Nc2nc3ccccc3n2-c2ccccc2)c(S)cc1Cl |  | > 100 µM (inactive) |  | > 100 µM (inactive) | > 100 µM (inactive) | 56.5 µM (inactive) | > 100 µM (inactive) | > 100 µM (inactive) | > 100 µM (inactive) | > 100 µM (inactive) | > 100 µM (inactive) | > 100 µM (inactive) |  | > 100 µM (inactive) | > 100 µM (inactive) |  | > 100 µM (inactive) | 9.12 µM (inactive) | > 100 µM (inactive) | 
5 | O=C(Cn1cc(-c2ccccc2)nn1)NC1CCCCC1 | > 100 µM (inactive) | > 100 µM (inactive) | > 100 µM (inactive) | > 100 µM (inactive) | > 100 µM (inactive) | > 100 µM (inactive) | > 100 µM (inactive) | > 100 µM (inactive) | > 100 µM (inactive) | > 100 µM (inactive) | > 100 µM (inactive) | > 100 µM (inactive) |  | 54.5 µM (inactive) | > 100 µM (inactive) | > 100 µM (inactive) | > 100 µM (inactive) |  | > 100 µM (inactive) | 
6 | CC(C)(C)OP(=O)(OC(C)(C)C)C(O)c1ccc(/C=C(\C#N)C(N)=O)cc1 (centres undefined) | > 100 µM (inactive) | > 100 µM (inactive) | > 100 µM (inactive) | > 100 µM (inactive) | > 100 µM (inactive) | > 100 µM (inactive) | > 100 µM (inactive) | > 100 µM (inactive) | > 100 µM (inactive) | > 100 µM (inactive) |  | > 100 µM (inactive) | > 100 µM (inactive) | > 100 µM (inactive) |  | > 100 µM (inactive) |  |  | > 100 µM (inactive) | > 100 µM (inactive)
7 | N#C/C(=C\c1cccc(Br)c1)c1nc2ccccc2c(=O)[nH]1 |  | > 100 µM (inactive) | 21.9 µM (inactive) | > 100 µM (inactive) | > 100 µM (inactive) | > 100 µM (inactive) | > 100 µM (inactive) | > 100 µM (inactive) | > 100 µM (inactive) | > 100 µM (inactive) | > 100 µM (inactive) | > 100 µM (inactive) | > 100 µM (inactive) | > 100 µM (inactive) | > 100 µM (inactive) | > 100 µM (inactive) | > 100 µM (inactive) | > 100 µM (inactive) | > 100 µM (inactive) | 
8 | CCOc1ccc(/C=N/[N+](C)(C)C)cc1OCC | > 10 µM (inactive) | > 10 µM (inactive) | > 10 µM (inactive) |  |  |  | > 10 µM (inactive) |  | > 10 µM (inactive) | > 10 µM (inactive) | > 10 µM (inactive) | > 10 µM (inactive) | > 10 µM (inactive) | > 10 µM (inactive) | > 10 µM (inactive) | > 10 µM (inactive) | > 10 µM (inactive) | > 10 µM (inactive) | > 10 µM (inactive) | 
9 | CC(=O)Nc1ccc(N2C(=O)CS(=O)(=O)C2c2cccc(Oc3ccccc3)c2)cc1 (centres undefined) | 18.5 µM (inactive) | 15.7 µM (inactive) | 19.3 µM (inactive) | 19.2 µM (inactive) | 17.2 µM (inactive) | 17.8 µM (inactive) | 16.7 µM (inactive) | 15.4 µM (inactive) | 20.2 µM (inactive) | 14.2 µM (inactive) | 21.2 µM (inactive) | 20 µM (inactive) | 27.4 µM (inactive) |  | 18.7 µM (inactive) | 19.1 µM (inactive) | 17.6 µM (inactive) | 15.9 µM (inactive) | 28.9 µM (inactive) | 
10 | COc1ccc(/C(=N/NC(=O)NN)C(c2ccc(OC)cc2)C2(O)CNc3c(Cl)cc(Cl)cc32)cc1 (centres undefined) | > 100 µM (inactive) | > 100 µM (inactive) | > 100 µM (inactive) | > 100 µM (inactive) | > 100 µM (inactive) | > 100 µM (inactive) | > 100 µM (inactive) | > 100 µM (inactive) | > 100 µM (inactive) | > 100 µM (inactive) |  | > 100 µM (inactive) | 81.8 µM (inactive) | > 100 µM (inactive) |  | 89.9 µM (inactive) |  |  | > 100 µM (inactive) | > 100 µM (inactive)
11 | O=C1C=C(Br)C(=O)C(Br)=C1 | > 100 µM (inactive) | > 31.6 µM (inactive) | > 100 µM (inactive) | > 100 µM (inactive) | > 100 µM (inactive) | > 100 µM (inactive) | > 100 µM (inactive) | > 100 µM (inactive) | > 100 µM (inactive) | > 100 µM (inactive) |  | > 100 µM (inactive) | > 100 µM (inactive) | 74 µM (inactive) |  | > 100 µM (inactive) |  |  | 59.7 µM (inactive) | > 100 µM (inactive)
12 | COC(=O)[C@@]12CCCC(=O)[C@@H]1[C@H]1CCCC[C@H]12 | > 100 µM (inactive) | > 100 µM (inactive) | > 100 µM (inactive) | > 100 µM (inactive) | > 100 µM (inactive) | > 100 µM (inactive) | > 100 µM (inactive) | > 100 µM (inactive) | > 100 µM (inactive) | > 100 µM (inactive) | > 100 µM (inactive) | > 100 µM (inactive) | > 100 µM (inactive) | > 100 µM (inactive) | > 100 µM (inactive) | > 100 µM (inactive) | > 100 µM (inactive) |  | > 100 µM (inactive) | 
13 | Cc1cccc(C)c1NC(=O)C(=O)C(c1ccccc1Cl)S(=O)(=O)Cc1ccccc1Cl (centres undefined) | 34.5 µM (inactive) | > 100 µM (inactive) | 18 µM (inactive) | > 83.8 µM (inactive) | > 100 µM (inactive) | > 100 µM (inactive) | > 37.8 µM (inactive) | > 100 µM (inactive) | 22.9 µM (inactive) | > 100 µM (inactive) | > 100 µM (inactive) | > 100 µM (inactive) | > 29.4 µM (inactive) | > 100 µM (inactive) | > 100 µM (inactive) | > 100 µM (inactive) | > 100 µM (inactive) | > 100 µM (inactive) | > 100 µM (inactive) | 
14 | C[n+]1c(-c2ccccc2)cc2/c(=C\c3ccc([N+](=O)[O-])cc3)c3ccccc3n21 | 2.51 µM (inactive) | 2.63 µM (inactive) | 4.84 µM (inactive) | 3.01 µM (inactive) | 2.65 µM (inactive) | 1.45 µM (inactive) | 1.66 µM (inactive) | 7.29 µM (inactive) | 3.47 µM (inactive) | 26.1 µM (inactive) | 2.54 µM (inactive) | 2.15 µM (inactive) | 4.8 µM (inactive) | 11.3 µM (inactive) | 2.1 µM (inactive) | 0.957 µM (active) | > 100 µM (inactive) |  | 1.79 µM (inactive) | 11 µM (inactive)
15 | COC1CC2CCC(C)[C@](O)(O2)C(=O)C(=O)N2CCCCC2C(=O)OC(C(C)CC2CCC(O)C(OC)C2)CC(=O)C(C)C=C(C)C(OC(=O)CN(C)C)C(OC)C(=O)C(C)CC(C)/C=C/C=C/C=C\1C (some centres undefined) | 10.9 µM (inactive) | < 0.01 µM (active) | < 0.01 µM (active) | < 0.0419 µM (active) | 10.3 µM (inactive) | 6.22 µM (inactive) | 0.403 µM (active) | < 0.01 µM (active) | 7.19 µM (inactive) | < 0.01 µM (active) | 2.69 µM (inactive) | 11 µM (inactive) | < 0.01 µM (active) |  | < 0.01 µM (active) | 3.81 µM (inactive) |  | < 0.01 µM (active) |  | < 0.01 µM (active)
16 | C1=CCC[C@@H]2CN3CCCC/C=C\CCCC[C@H]4C[C@H](CN(CCCCCCCC1)C4)[C@H]2CC3 | 13.2 µM (inactive) | 8.59 µM (inactive) | 8.45 µM (inactive) | 8.61 µM (inactive) | > 50 µM (inactive) | 9.75 µM (inactive) | 9.55 µM (inactive) | 11.3 µM (inactive) | 10.5 µM (inactive) | 12.2 µM (inactive) | 8.69 µM (inactive) | 9.2 µM (inactive) | > 50 µM (inactive) | 7.59 µM (inactive) | 9.18 µM (inactive) | 10.9 µM (inactive) |  | 12.7 µM (inactive) | 9.02 µM (inactive) | 12.3 µM (inactive)
